Laboratory results published in the supplement of paper PMC11451515.

Columns and labels:
Settings in all cases: 48 h
[1] = system: SEM cells; test: AUC of viability dose-response curve (% viability x log10 dose units); higher = less sensitive
How it was run: (§1)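 Area under the curve was integrated by trapezoidal rule from a log-logistic fit of normalised viability, with curves exceeding full viability scaled and quality-control failures removed. The fit had four parameters over log10 doses. Viability came from CellTiter-Glo One luminescence, normalised per plate to DMSO and cell-free wells, after leukemia cells adapted to each medium (500 or 1000 cells/well, 1536-well plates) were exposed to library compounds in DMSO for 48 h at 37°C. The 11 threefold doses ran from 47 μM to 0.79 nM.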

[2] = system: NOMO1; test: as above
How it was run: as §1

[3] = system: P12-Ichikawa; test: as above
How it was run: as §1

[4] = system: SEM cells; test: cell viability relative to DMSO control; higher = less cytotoxic
How it was run: (§2)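 Viability, reported as a per-plate percentage of DMSO wells with cell-free wells as background, came from CellTiter-Glo One luminescence. Reading took place after 48 h at 37°C. Before that, NOMO1 or SEM (500 cells/well) or P12-Ichikawa (1000 cells/well) leukemia cells, adapted for at least four passages in each medium, were seeded in 1536-well plates (5 μl) and pin-dosed with library compounds in DMSO, 47 μM to 0.79 nM over 11 threefold points.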

[5] = system: NOMO1; test: as above
How it was run: as §2

[6] = system: P12-Ichikawa; test: as above
How it was run: as §2

O=C(Nc1cccnc1)N1CCC(Cc2cccc(Oc3ccc(C(F)(F)F)cn3)c2)CC1
AUC of viability dose-response curve
Settings	[1]	[2]	[3]
HPLM + 10% dialyzed FBS	337	405	361
RPMI 5 mM glucose + 10% FBS	299	427	346
RPMI 5 mM glucose + 10% dialyzed FBS	303	425	344

cell viability [%]
Settings	[4]	[5]	[6]
HPLM + 10% dialyzed FBS, 0.000781 µM	42	98.9	116
HPLM + 10% dialyzed FBS, 0.00234 µM	94.2	112	107
HPLM + 10% dialyzed FBS, 0.00702 µM	83.5	108	109
HPLM + 10% dialyzed FBS, 0.0211 µM	95.1	116	104
HPLM + 10% dialyzed FBS, 0.0632 µM	117	115	110
HPLM + 10% dialyzed FBS, 0.19 µM	88.7	115	92
HPLM + 10% dialyzed FBS, 0.569 µM	94.3	116	83.1
HPLM + 10% dialyzed FBS, 1.71 µM	69.6	91.4	76.3
HPLM + 10% dialyzed FBS, 5.12 µM	49.3	81.3	68.7
HPLM + 10% dialyzed FBS, 15.4 µM	11.2	32.6	27.1
HPLM + 10% dialyzed FBS, 46.1 µM	9	19	15.5
RPMI 5 mM glucose + 10% FBS, 0.000781 µM	46.8	111	109
RPMI 5 mM glucose + 10% FBS, 0.00234 µM	92.7	104	117
RPMI 5 mM glucose + 10% FBS, 0.00702 µM	81.5	99.7	117
RPMI 5 mM glucose + 10% FBS, 0.0211 µM	89.8	98.6	106
RPMI 5 mM glucose + 10% FBS, 0.0632 µM	100	110	118
RPMI 5 mM glucose + 10% FBS, 0.19 µM	88.4	107	97.6
RPMI 5 mM glucose + 10% FBS, 0.569 µM	64.9	108	82.2
RPMI 5 mM glucose + 10% FBS, 1.71 µM	57.1	101	64.2
RPMI 5 mM glucose + 10% FBS, 5.12 µM	35.8	108	55.6
RPMI 5 mM glucose + 10% FBS, 15.4 µM	6.35	35.1	23.5
RPMI 5 mM glucose + 10% FBS, 46.1 µM	4.68	23	10.4
RPMI 5 mM glucose + 10% dialyzed FBS, 0.000781 µM	37.7	98.2	108
RPMI 5 mM glucose + 10% dialyzed FBS, 0.00234 µM	91.2	103	108
RPMI 5 mM glucose + 10% dialyzed FBS, 0.00702 µM	81.1	92.1	113
RPMI 5 mM glucose + 10% dialyzed FBS, 0.0211 µM	78.1	102	114
RPMI 5 mM glucose + 10% dialyzed FBS, 0.0632 µM	98.4	102	103
RPMI 5 mM glucose + 10% dialyzed FBS, 0.19 µM	91.1	118	88.4
RPMI 5 mM glucose + 10% dialyzed FBS, 0.569 µM	86.9	116	81.1
RPMI 5 mM glucose + 10% dialyzed FBS, 1.71 µM	58.1	107	62.6
RPMI 5 mM glucose + 10% dialyzed FBS, 5.12 µM	34.7	85.8	50.4
RPMI 5 mM glucose + 10% dialyzed FBS, 15.4 µM	14.4	47	29.3
RPMI 5 mM glucose + 10% dialyzed FBS, 46.1 µM	8.02	31.5	13.9

OC1=CC(=C(C=C1)\C2=C(O)\C(=O)C3=C(O2)C=C(O)C=C3O)O
AUC of viability dose-response curve
Settings	[1]	[2]	[3]
HPLM + 10% dialyzed FBS	461	450	442
RPMI 5 mM glucose + 10% FBS	459	433	444
RPMI 5 mM glucose + 10% dialyzed FBS	465	467	443

[5], HPLM + 10% dialyzed FBS
Settings	cell viability [%]
0.000781 µM	121
0.00234 µM	118
0.00702 µM	138
0.0211 µM	136
0.0632 µM	120
0.19 µM	137
0.569 µM	132
1.71 µM	119
5.12 µM	112
15.4 µM	106
46.1 µM	71.5

FC1=CC2=C3[N](CCN(CC3=C1)C(=O)N4CCCCC4)C=C2C/5=C(C(=O)NC5=O)\C6=CN=C7C=CC=C[N]67
AUC of viability dose-response curve
Settings	[1]	[2]	[3]
HPLM + 10% dialyzed FBS	168	461	329
RPMI 5 mM glucose + 10% FBS	159	469	298
RPMI 5 mM glucose + 10% dialyzed FBS	159	463	367

[4], HPLM + 10% dialyzed FBS
Settings	cell viability [%]
0.000781 µM	104
0.00234 µM	109
0.00702 µM	118
0.0211 µM	57
0.0632 µM	11.5
0.19 µM	9.31
0.569 µM	8.55
1.71 µM	10.7
5.12 µM	8.69
15.4 µM	5.56
46.1 µM	6.04

CC(C)CC(=O)Nc1n[nH]c2c1CN(C(=O)C1CCN(C)CC1)C2(C)C
AUC of viability dose-response curve
Settings	[1]	[2]	[3]
HPLM + 10% dialyzed FBS	320	331	311
RPMI 5 mM glucose + 10% FBS	338	370	351
RPMI 5 mM glucose + 10% dialyzed FBS	338	325	345

[5], HPLM + 10% dialyzed FBS
Settings	cell viability [%]
0.000781 µM	112
0.00234 µM	154
0.00702 µM	113
0.0211 µM	131
0.0632 µM	85.3
0.19 µM	94.5
0.569 µM	103
1.71 µM	61.4
5.12 µM	71.1
15.4 µM	18.5
46.1 µM	3.76

CCOc1cc(N2CCC(O)CC2)ccc1Nc1ncc2c(n1)N(C)c1ccccc1C(=O)N2C
AUC of viability dose-response curve
Settings	[1]	[2]	[3]
HPLM + 10% dialyzed FBS	441	321	350
RPMI 5 mM glucose + 10% FBS	421	301	352
RPMI 5 mM glucose + 10% dialyzed FBS	428	318	370

[4], HPLM + 10% dialyzed FBS
Settings	cell viability [%]
0.000781 µM	106
0.00234 µM	117
0.00702 µM	133
0.0211 µM	126
0.0632 µM	130
0.19 µM	133
0.569 µM	139
1.71 µM	146
5.12 µM	119
15.4 µM	94.9
46.1 µM	7.22

CC(C)(C)[C@]1(O)C[C@@H]2OC(=O)C[C@@]23C(=O)O[C@@H]2OC(=O)[C@H](O)C213 (some centres not stated)
AUC of viability dose-response curve
Settings	[1]	[2]	[3]
HPLM + 10% dialyzed FBS	471	452	447
RPMI 5 mM glucose + 10% FBS	444	436	458
RPMI 5 mM glucose + 10% dialyzed FBS	436	452	452

cell viability [%]
Settings	HPLM + 10% dialyzed FBS	RPMI 5 mM glucose + 10% FBS	RPMI 5 mM glucose + 10% dialyzed FBS
[4], 0.000781 µM	113	110	–
[4], 0.00234 µM	108	139	–
[4], 0.00702 µM	109	120	–
[4], 0.0211 µM	104	148	–
[4], 0.0632 µM	110	114	–
[4], 0.19 µM	99.1	108	–
[4], 0.569 µM	104	113	–
[4], 1.71 µM	111	90.4	–
[4], 5.12 µM	105	118	–
[4], 15.4 µM	113	134	–
[4], 46.1 µM	115	125	–
[6], 0.000781 µM	121	128	120
[6], 0.00234 µM	127	121	129
[6], 0.00702 µM	121	113	124
[6], 0.0211 µM	126	136	130
[6], 0.0632 µM	118	118	119
[6], 0.19 µM	112	122	116
[6], 0.569 µM	118	118	119
[6], 1.71 µM	108	105	105
[6], 5.12 µM	109	116	118
[6], 15.4 µM	114	108	116
[6], 46.1 µM	106	113	112
